The record followed here is US20230117324A1, “OXAZINE MONOACYLGLYCEROL LIPASE (MAGL) INHIBITORS” (Hoffmann-La Roche Inc., priority 2018, published 2023).

Each structure is given as a SMILES string.

The assay addresses T1, MAGL (Homo sapiens, UniProt Q99685).
T1 sequence (Q99685 1-303): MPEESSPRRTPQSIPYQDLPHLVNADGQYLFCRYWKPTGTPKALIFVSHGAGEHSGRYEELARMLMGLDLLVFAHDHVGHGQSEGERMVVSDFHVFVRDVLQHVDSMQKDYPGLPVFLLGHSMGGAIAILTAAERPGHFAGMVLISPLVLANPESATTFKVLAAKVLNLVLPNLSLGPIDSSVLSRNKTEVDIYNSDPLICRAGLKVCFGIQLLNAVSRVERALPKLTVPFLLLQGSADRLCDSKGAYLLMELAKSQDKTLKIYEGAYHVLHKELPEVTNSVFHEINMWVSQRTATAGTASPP
Nature of the assay: MAGL inhibition, 2-AG assay (hydrolysis of 2-arachidonoylglycerol, arachidonic acid by mass spectrometry). It is filed as biochemical. As to conditions: 2-AG assay (footnote [b]). Put shortly:
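Human MAGL […] was preincubated 15 min at RT with compound ([…], 3-fold steps) in 50 mM Tris, 1 mM EDTA, 0.01% Tween. 2-AG (8 μM) was then added for 30 min at RT. Arachidonic acid was quantified by RapidFire SPE–triple quadrupole MS in negative ESI as its ratio to a d8-arachidonic acid standard.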

For orientation: IC50 means the point on the concentration scale where inhibition reaches its midpoint. A higher IC50 goes with lower potency.

`O=C1CO[C@H]2CCN(C(=O)N3CC(c4ccc(N5CCC(C(F)(F)F)C5)cn4)C3)C[C@H]2N1` (single isomer, unassigned) [Example 271, (4aR,8aS)-6-(3-(5-((R or S)-3-(Trifluoromethyl)pyrrolidin-1-yl)pyridin-2-yl)azetidine-1-carbonyl)hexahydro-2H-pyrido[4,3-b][1,4]oxazin-3(4H)-one] returned an IC50 of 22 nM. In other words, the double-digit nanomolar range.

Molecule `O=C1CO[C@H]2CCN(C(=O)N3CC(c4ccc(N5CCC(C(F)(F)F)C5)cn4)C3)C[C@H]2N1` (single isomer, unassigned) [Example 272, (4aR,8aS)-6-(3-(5-((S or R)-3-(Trifluoromethyl)pyrrolidin-1-yl)pyridin-2-yl)azetidine-1-carbonyl)hexahydro-2H-pyrido[4,3-b][1,4]oxazin-3(4H)-one] displayed an IC50 of 17 nM.

In the case of `O=C1CO[C@H]2CCN(C(=O)N3CC(c4ccc(N5CCC(C(F)(F)F)C5)nc4)C3)C[C@H]2N1` (single isomer, unassigned) [Example 274, (4aR,8aS)-6-[3-[6-[3-(R or S)-(Trifluoromethyl)pyrrolidin-1-yl]-3-pyridyl]azetidine-1-carbonyl]-4,4a,5,7,8,8a-hexahydropyrido[4,3-b][1,4]oxazin-3-one], the midpoint of inhibition, the IC50, lay at 2 nM.

The molecule `CC(C)(C)[Si](C)(C)OCCn1cc(C2CCN(C(=O)N3CC[C@@H]4OCC(=O)NC4C3)CC2)c2cc(Cl)ccc21` (stereo in doubt) [Example 268, (4aS,8aS)-6-[4-[1-[2-[tert-Butyl(dimethyl)silyl]oxyethyl]-5-chloro-indol-3-yl]piperidine-1-carbonyl]-4,4a,5,7,8,8a-hexahydropyrido[4,3-b][1,4]oxazin-3-one] gave an IC50 of 670 nM.

The molecule `N#CC(c1ccc(F)cc1)C1CCN(C(=O)N2CC[C@@H]3OCC(=O)N[C@@H]3C2)CC1` (stereo partly drawn) [Example 48, 2-(4-Fluorophenyl)-2-(1-((4aR,8aS)-3-oxooctahydro-2H-pyrido[4,3-b][1,4]oxazine-6-carbonyl)piperidin-4-yl)acetonitrile] had an IC50 of 361 nM.

Take `O=C1CO[C@H]2CCN(C(=O)N3CCN(C(c4ccccc4)C(F)(F)F)CC3)C[C@H]2N1` (stereo partly drawn) [Example 49, (4aR,8aS)-6-(4-(2,2,2-Trifluoro-1-phenylethyl)piperazine-1-carbonyl)hexahydro-2H-pyrido[4,3-b][1,4]oxazin-3(4H)-one]: inhibition was half-maximal at 1100 nM (IC50).

`O=C1CO[C@H]2CCN(C(=O)N3CCC(C(OCC(F)(F)F)c4ccc(F)cc4)CC3)C[C@H]2N1` (stereo partly drawn) [Example 50, (4aR,8aS)-6-(4-((4-Fluorophenyl)(2,2,2-trifluoroethoxy)methyl)piperidine-1-carbonyl)hexahydro-2H-pyrido[4,3-b][1,4]oxazin-3(4H)-one] had an IC50 of 9 nM.

`Cc1noc(CC(c2ccc(F)cc2)C2CCN(C(=O)N3CC[C@@H]4OCC(=O)N[C@@H]4C3)CC2)n1` (stereo partly drawn) [Example 51, (4aR,8aS)-6-(4-(1-(4-Fluorophenyl)-2-(3-methyl-1,2,4-oxadiazol-5-yl)ethyl)piperidine-1-carbonyl)hexahydro-2H-pyrido[4,3-b][1,4]oxazin-3(4H)-one] came in with an IC50 of 63 nM.

With `O=C1CO[C@H]2CCN(C(=O)N3CCC(C4(c5ccc(C(F)(F)F)cc5)CC4)CC3)C[C@H]2N1` [Example 52, (4aR,8aS)-6-(4-(1-(4-(Trifluoromethyl)phenyl)cyclopropyl)piperidine-1-carbonyl)hexahydro-2H-pyrido[4,3-b][1,4]oxazin-3(4H)-one], the IC50 came to 21 nM.

As to `O=C1CO[C@H]2CCN(C(=O)N3CCN(C(c4ccc(F)cc4F)C(F)(F)F)CC3)C[C@H]2N1` (stereo partly drawn) [Example 53, (4aR,8aS)-6-(4-(1-(2,4-Difluorophenyl)-2,2,2-trifluoroethyl)piperazine-1-carbonyl)hexahydro-2H-pyrido[4,3-b][1,4]oxazin-3(4H)-one], the IC50 is 416 nM.
